This is an account of results in US20260166068A1, “COMPOSITION FOR PROMOTING DEVELOPMENT OF BRAIN FUNCTIONS IN CHILDREN” (Meiji Co., Ltd., priority 2022, published 2026).

Assay [1] concerns brain function development of infants. Kind of assay: Spearman correlation of NAD-related substance concentration in 1-month breast milk with ASQ-3 developmental scores at 24 months. It is filed as in vivo, human. Particulars: for Correlation with concentration, r (Spearman): ASQ-3 at 24 months, 1-month breast milk; for Correlation of concentration in breast milk with developmental scores (in words): p<0.05. Here is the method:
(§1) The method was specifically as follows.
Concentrations of NAD-related substances in 1-month breast milk ingested by 150 infants of 1 to 6 months old, who were fully breastfed, were determined by LC-MS/MS.
Development of the infants was assessed at the age of 24 months using ASQ (registered trademark)-3 (Japanese version of ASQ (registered trademark)-3 infant developmental screening questionnaires, Igaku Shoin, 2021). The relationship between the amount of each NAD-related substance ingested by the infants and their development was evaluated by using Spearman's rank-order correlation coefficient.

The subject of assay [2] is mouse model of drug-induced depression. Particulars: cited from earlier work.
Assay [3] relates to brain function development of infants. Kind of assay: Between-group comparison (Mann-Whitney U) of ASQ-3 developmental scores, high NMN vs low NMN breast milk. It is filed as in vivo, human. As to the method:
as §1
By using the data on the contents of NMN in breast milk and the developmental scores of the infants shown in Method 1, the subject infants were divided into two groups according to the concentration of NMN in breast milk, and the groups were compared according to Mann-Whitney's U-test. In this study, the boundary concentration of the two groups was set to be 1.922 μg/mL (mean NMN concentration in 1-month breast milk−1×standard deviation) or 3.089 μg/mL (mean NMN concentration in 1-month breast milk). That is, the group comparison was performed between two groups of NMN concentrations in the consumed breast milk of […] (high NMN group) and <1.922 μg/mL (low NMN group), or two groups of the same of 3.089 μg/mL (high NMN group) and <3.089 μg/mL (low NMN group).

Assay [4] concerns mouse. Particulars: aging; cited from earlier work.
For assay [5], the system named is aged mice. Particulars: cited from earlier work.
For assay [6], the system named is old rats. Particulars: each alone or in combination; cited from earlier work.
In assay [7] the test system is mice. Particulars: cited from earlier work.
The subject of assay [8] is piglets. Particulars: cited from earlier work.

Values joined by “and” are separate entries in the source; they are usually repeats but may differ in a detail not shown here. Identical values can stand only once.

As to `O=C(O)c1cccnc1` [NA, nicotinic acid], the “Correlation with concentration, r (Spearman)” value (“Correlation with concentration” below) in assay [1] (Communication, 150 infants) is reported as 0.025; in assay [1] (Gross motor), 0.095; in assay [1] (Problem solving), 0.147; in assay [1] (Social-individual) it was 0.154. In addition, the “Correlation of concentration in breast milk with developmental scores (in words)” value (shortened to “Correlation of concentration”) in assay [1] (gross motor) is on record as “positive correlation”.
`NC(=O)c1ccc[n+]([C@@H]2O[C@H](COP(=O)([O-])OP(=O)(O)OC[C@H]3O[C@@H](n4cnc5c(N)ncnc54)[C@H](O)[C@@H]3O)[C@@H](O)[C@H]2O)c1` [NAD, nicotinamide adenine dinucleotide]: the “Correlation with concentration” value in assay [1] (Fine motor) is on record as 0.025; in assay [1] (Gross motor) it was 0.077; in assay [1] (Problem solving), 0.056; in assay [1] (Social-individual) it was 0.048.
On to `NC(=O)c1ccc[n+]([C@@H]2O[C@H](COP(=O)([O-])O)[C@@H](O)[C@H]2O)c1` [NMN, nicotinamide mononucleotide], for which the “Correlation with concentration” value is 0.199 in assay [1] (Communication, 150 infants); 0.208 in assay [1] (Fine motor); 0.186 in assay [1] (Gross motor); 0.288 in assay [1] (Problem solving); 0.269 and 0.259 in assay [1] (Social-individual). The “Correlation of concentration” value in assay [1] (all five developmental areas at 24 months) is “significant positive correlation”. The “Effectiveness in promoting brain development in infants among the NAD-related substances” value in assay [1] (in vivo) is recorded as “most effective”. For the same compound, the “Correlation between amount in breast milk ingested from 1 to 6 months of age and development by ASQ-3 24-month (in words)” value in assay [1] (overall) is “high correlation”. For the same compound, the Drug-induced depression-like symptoms entry in assay [2] is “improves drug-induced depression-like symptoms”. For the same compound, the “Development of the infants, high NMN group vs low NMN group” value in assay [3] (fine motor, boundary value 3.089 μg/mL, FIG. 2) is on record as “significantly accelerated”; in assay [3] (personal-social, boundary value 1.922 μg/mL, FIG. 1) it was “significantly accelerated”; in assay [3] (personal-social, boundary value 3.089 μg/mL, FIG. 2), “significantly accelerated”; in assay [3] (problem solving, boundary value 3.089 μg/mL, FIG. 2) it was “significantly accelerated”. In addition, the “NMN level in the composition at which infants' brain functions are significantly enhanced” value in assay [3] (in vivo) was not below 1.922 µg/mL. Moreover, in assay [4], the “Hypersensitive behaviors to fear and anxiety” value is “may alleviate hypersensitive behaviors to fear and anxiety”. Also, in assay [5], the Neurovascular coupling result is reported as “may promote neurovascular coupling”. In assay [6], the “Learning and memory abilities” value is “improves their learning and memory abilities”.
In the case of `NC(=O)c1ccc[n+]([C@@H]2O[C@H](CO)[C@@H](O)[C@H]2O)c1` [NR, nicotinamide riboside], the “Correlation with concentration” value in assay [1] (Communication, 150 infants) was 0.017; in assay [1] (Fine motor) it was 0.085; in assay [1] (Gross motor) it was 0.082; in assay [1] (Social-individual), 0.117. The “Correlation of concentration” value in assay [1] (problem solving) is given as “positive correlation”. Moreover, the “BDNF level in breast milk” value in assay [7] (NR supplementation of mothers) is “twice as high”. The “Fat and brain size of offspring at weaning” value in assay [7] (mice raised by supplemented mothers) was “lower fat and larger brains”. In addition, in assay [7] (mouse, in vivo), the “Milk secretion and production of BDNF” value is given as “stimulates milk secretion”. The “Short-chain fatty acids in feces” value in assay [8] is recorded as “increased levels”.
For the compound `COc1ccc2[nH]cc(CCNC(C)=O)c2c1` [melatonin], in assay [6], the “Learning and memory abilities” value is “improves their learning and memory abilities”.
